Data published in patent publication US11298409B2, “Mutant huntingtin-mediated protein dysfunction” (UNIVERSITY OF PITTSBURGH—OF THE COMMONWEALTH SYSTEM OF …, priority 2014, dated 2022).
Like-named read-outs stand apart in the source and are kept apart here. No end group written: not given here.

Columns and labels:
[1] = tested on: pOTC import into mitochondria isolated from striatal cells; test: pOTC import assay with mitochondria from striatal cells plus uncoupler; format: biochemical; conditions: added to mitochondria before starting the import reaction
Method: The assay was performed as previously described (52,53).

[2] = tested on: mitochondrial protein import in primary cortical neurons; conditions: 10 μM, 2 h
Method: Neurons obtained from each embryo were cultured separately on poly-1-lysine-coated plates and subjected to in vitro pOTC import assay on DIV 7-8.
Pre-ornithine transcarbamylase (pOTC) cDNA in pGEM-3Zf(+)-pOTC plasmid, which was kindly provided by M. Yano (Kumamoto University, Kumamoto, Japan), was transcribed and translated in vitro using the TNT-coupled reticulocyte lysate system (Promega) in the presence of 1-[^35S]methionine (PerkinElmer). Following translation, [35 S]methionine-labeled pOTC was incubated with isolated mitochondria at 25° C. for the indicated times, and mitochondria containing imported OTC were collected by centrifugation (9,000 g, 10 min) and subjected to SDS-PAGE. The radioactive polypeptides on the gel were visualized by fluorography with Amplify (GE Healthcare) followed by exposure to X-ray film. Cleaved mature OTC (mOTC), which represents the completion of import into the mitochondrial matrix and migrates faster than pOTC on SDS-PAGE, was quantified by ImageJ (NIH). The data are presented as the percentage of mOTC compared to input (total [^35S]pOTC amount added to each reaction) and scaled to imported mOTC in control mitochondria after the maximum reaction time (set equal to 1) unless otherwise specified. […]

[3] = tested on: WT primary cortical neurons; conditions: 10 μM
Method: Primary cortical neurons were prepared from R6/2 and WT littermate embryos at E15.5. Neurons prepared from each embryo were plated into separate dishes. […] Primary cortical neurons were incubated with the indicated concentrations of H2O2 for 1 day, and neuronal death was analyzed by lactate dehydrogenase (LDH) assay (11c). Data (11b, 11c) are presented as mean+s.e.m.

[4] = tested on: primary cortical and striatal neurons; test: cell death assay by nuclear morphology in Tom40 RNAi-transfected primary neurons; format: cell-based, mouse; conditions: 20 μM
Method: Mouse primary cortical and striatal neurons from embryonic day (E) 15.5 Swiss Webster mouse fetuses were cultured in plating medium (minimal essential medium (MEM), 10% FBS, 0.45% glucose, 1 mM sodium pyruvate, 2 mM glutamine and penicillin/streptomycin) for 3 h and then maintained in serum-free Neurobasal medium containing B27 supplement (Life Technologies), 0.5 mM glutamine and 25 μM glutamate for the first 3 d in a humidified incubator (37° C. in 5% CO2). Half of the medium was replaced with Neurobasal medium with B27 and 0.5 mM glutamine every 3 d. […] Viral copy number was adjusted for transduction of neurons on the basis of titer measured using the Lenti-X qRT-PCR titration kit (Clontech). […]
Primary neurons infected with Tim23 shRNA or control luciferase shRNA lentivirus at DIV 5 were fixed 7 d after infection. Nuclei were stained with Hoechst 33342, and neurons were assessed in a blinded fashion for cell death by scoring condensed or fragmented nuclei. Primary neurons plated in a 24-well plate were transfected with Tom40 shRNA or control pBSU6 plasmid along with β-gal expression plasmid at DIV 5, fixed 3 d after transfection and subjected to indirect immunofluorescence with anti-β-gal antibody and nuclear DAPI staining. β-gal-positive neurons were assessed for cell death as described above. […]

[5] = tested on: TIM23 complex (Tim17a, Tim23 and Tim50); test: GST pull-down with mitochondria isolated from ST14A striatal cells and mouse brain; format: binding, rat
Method: Extracts were spun at 14,000 r.p.m. at 4° C., and clarified supernatants were incubated with glutathione 4B Sepharose beads (GE Healthcare) at 4° C. overnight. The glutathione beads were then washed extensively with ice-cold TNE buffer, and bound proteins were subjected to SDS-PAGE followed by immunoblotting analysis. For the samples subjected to mass spectrometry, glutathione bead-bound proteins from equal amounts (600 μg) of mitochondria were further washed with high stringency RIPA buffer following TNE buffer wash to decrease nonspecific interaction. Proteins were then eluted from the glutathione beads in SDS sample buffer, separated by SDS-PAGE and stained with Coomassie. Proteins in the gel were digested with trypsin and analyzed by mass spectrometry (LC-MS/MS) at the Taplin Biological Mass Spectrometry Facility (Harvard Medical School, Boston, Mass.).
We therefore performed GST pull-down assays using purified GST-Httex1-97Q, GST-Httex1-97Q-ΔN17, which lacks the N17 sequence, and GST-N17 with mitochondria isolated from ST14A striatal cells and mouse brain.

Tim23 = target: T1, Tim23 (Mus musculus, UniProt Q9WTQ8); test: GST pull down assay with purified Tim proteins; format: binding
T1 construct: GST (N, cleaved yes); made in house; host or cells: E. coli BL21star (DE3)
T1 sequence (Q9WTQ8 1-209): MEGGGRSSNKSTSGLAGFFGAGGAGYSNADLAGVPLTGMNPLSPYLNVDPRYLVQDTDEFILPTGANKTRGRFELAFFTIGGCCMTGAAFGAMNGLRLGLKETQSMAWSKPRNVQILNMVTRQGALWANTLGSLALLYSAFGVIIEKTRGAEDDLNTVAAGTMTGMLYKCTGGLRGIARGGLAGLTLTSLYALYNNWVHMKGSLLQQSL
Method: Mouse Timm23, Timm50, Timm17A, and Timm17B cDNA were subcloned into the GST-Httex1 vector and transformed into BL21star (DE3) cells (Life Technologies). GST-Tim23, GST-Tim50, GST-Tim17A, and GST-Tim17B fusion proteins were purified from the cells by using glutathione 4B Sepharose beads (GE Healthcare) to bind the fusion proteins. To purify Tim proteins from GST, the GST fusion protein-bead complexes were digested with thrombin protease (GE Healthcare) at 25° C. overnight, and eluted with PBS. The eluted proteins were concentrated in PBS using AmiconUltra-10K centrifugal filters (Millipore).
GST-Htt exon 1 proteins and GST removed Tim proteins were incubated with glutathione 4B Sepharose beads (GE Healthcare) at 4° C. overnight. The glutathione beads were then washed extensively with ice-cold PBS, and bound proteins were subjected to SDS-PAGE followed by immunoblotting analysis.

## O=[N+]([O-])c1ccc(O)c([N+](=O)[O-])c1 [2,4-dinitrophenol]
[1]
  effect on pOTC import: blocks import

## OO [hydrogen peroxide]
[2]; R6/2 neurons
  effect on mitochondrial protein import vs vehicle: significantly decreased import
[2]; WT neurons
  effect on mitochondrial protein import vs vehicle: little to no effect
[3]
  effect on survival: does not affect

## CC(C)[C@H](NC(=O)c1ccc2ccccc2n1)C(=O)N[C@@H](CC(=O)O)C(=O)COc1c(F)cccc1F [qVD-OPh]
[4]
  effect on Tom40 RNAi-induced neuronal death: partially but significantly inhibited

## GST-N17: GST tagged N terminal 17 amino acids of Huntingtin protein (MATLEKLMKAFESLKSF; also: GST tagged, side not given here)
[5]
  interaction with Tim17a, Tim23 and Tim50 in pull-down: little, if any, interaction
Tim23
  binding to Tim23 in pull down: did not bind
